These results are taken from PMC4942781, “A sodium channel inhibitor ISTX-I with a novel structure provides a new hint at the evolutionary link between two toxin folds” (Scientific Reports, 2016).

One assay relates to potassium channel. As to the kind of experiment: Whole-cell patch clamp, Kv currents in DRG neurons. Format: cell-based, rat. To be noted: 20 μM ISTX-I, 500 ms depolarized potential of +10 mV. Here is the method:
(§1) Rat DRG cells were acutely dissociated from adult Sprague-Dawley rats[30]. Briefly, adult rats of either sex with body weights of approximately 200 g were killed by decapitation. The dorsal root ganglia were isolated quickly from the spinal cord and then transferred into Dulbecco’s modified Eagle’s medium (DMEM) containing trypsin I (0.15 mg/mL) and collagenase II (0.3 mg/mL) for incubation with an oscillation frequency of 200 rpm at 37 °C for 20 min. The trypsin inhibitor II-S (1 mg/mL) was added to terminate the reaction. […]
(§2) DRG neurons with a large diameter (>[…]) and those with a relatively small diameter (<[…]) were chosen by measuring TTX-s and TTX-r currents, respectively. […] Potassium, calcium, and sodium currents were recorded in experimental cells using whole-cell patch-clamp recordings at room temperature, which were performed with an HEK EPC10 patch-clamp amplifier. […] Experimental data were acquired and analyzed using the programs patch master and Sigmaplot 9.0 (Sigma, USA). […]
(§3) Currents were recorded from experimental cells using whole-cell patch clamptechnique at room temperature (22–25 °C). […]
(pH 7.4). K+ currents were recorded using an internal solution containing the followings (in mM): KCl 140, MgCl2 2.5, HEPES 10, and EGTA 11 (pH 7.2). […]
On the technique in general: The patch-clamp technique gives a direct electrical read-out from membranes.

The test system of the next assay is hNav1.6. As to the kind of experiment: Whole-cell patch clamp, hNav1.6 in HEK293T cells. Format: cell-based, human. To be noted: 10 μM ISTX-I; 50 ms step to -10 mV from -80 mV. On the procedure: HEK293T (human embryonic kidney) cells were grown in DMEM containing 10% heat-inactivated FBS at 37 °C in a 5% CO2 incubator. The cDNA genes encoding human (h)Nav1.1, (h)Nav1.2, (h)Nav1.3, (h)Nav1.4, (h)Nav1.5, (h)Nav1.6 and (h)Nav1.7 were transiently transfected into HEK293T cells for electrophysiology using Lipofectamine-2000 (Invitrogen) in serum-reduced medium (Opti-MEM, Invitrogen) following the manufacturer’s instructions. The auxiliary subunits hβ1 and enhanced green florescent protein plasmids were cotransfected into HEK293T cells to increase the current density and efficiently select cells with green florescent protein for whole-cell patch-clamp recordings. After 12 h, the HEK293T cells were used for electrophysiological analysis.
as §2, §3

In another assay the test system is sodium channels. As to the kind of experiment: Selectivity and mode of action on sodium channels, summary statements. Format: cell-based. Here is the method:
as §1, with “reaction. The isolated DRG cells were split into 35 mm culture dishes with DMEM solution containing 10% fetal bovine serum (FBS) and were incubated in a CO2 incubator (5% CO2, 95% air, 37 °C) for 1–4 h before the patch-clamp experiment.” for “reaction.”
as §2, §3

Entries after “also recorded” stand apart in the source; their conditions may differ. Bridge positions count the residues as written; N and C are the ends. Ends that are not written are not given here.

As for “LCSENGDCAADECCVDTVFEGDMVTRSCEKTTGNFTECPGLTPIA (disulfide 2-14, 8-28, 13-38) [ISTX-I]”, the “effect on potassium channels” value in the assay with potassium channel is recorded as “no obvious effects; also recorded: No effects were detected”. The “inhibition of Nav1.6 currents” value in the assay on hNav1.6 is listed as 10%. Further, in the assay on sodium channels, the “shift of I-V and G-V curves upon inhibition of sodium channels (summary)” value was “without any shifts of the I-V and G-V curves”; the “sodium channel subtype selectivity (in words)” value is reported as “not other sodium channel subtypes; also recorded: specific activity on Nav1.7 subtypes; also recorded: subtype-selective inhibitor of Nav1.7”.
